# Patent US10722520B2, “Heterocyclic compounds and their use in preventing or treating bacterial infections” (MUTABILIS, priority 2016, dated 2020)
# pIC50: −log10 of the molar value.
# Key:
# [1] = system: E. cloacae P99; assay: MIC of compound alone, broth microdilution; format: cell-based; details: strain P99; compound alone
# How it was run: (§1)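 Visual end point: lowest concentration that blocked growth. Conditions: cation-adjusted Mueller-Hinton broth, 5×10^5 cfu/mL final inoculum of log-phase bacteria, 16-20 h, 35° C, ambient atmosphere.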
# [2] = system: E. coli 190317; assay: MIC of compound alone, broth microdilution; format: cell-based; details: strain 190317; compound alone
# How it was run: as §1
# [3] = system: K. pneumoniae 6299; assay: MIC of compound alone, broth microdilution; format: cell-based; details: strain 6299; compound alone
# How it was run: as §1
# [4] = system: K. pneumoniae BAA-1898; assay: MIC of compound alone, broth microdilution; format: cell-based; details: strain BAA-1898; compound alone
# How it was run: as §1
# [5] = system: P. aeruginosa CIP107051; assay: MIC of compound alone, broth microdilution; format: cell-based; details: strain CIP107051; compound alone
# How it was run: as §1
# [6] = system: E. cloacae P99; assay: MIC of ceftazidime (CAZ) at fixed concentration of compound (synergy), broth microdilution; format: cell-based; details: strain P99; MIC of CAZ, compound fixed at 4 μg/mL
# Experimental: (§2) Log phase bacterial suspensions were adjusted to a final density of 5×10^5 cfu/mL in cation-adjusted Mueller-Hinton broth (Becton-Dickinson) and added to each well (98 μL). Microplates were incubated for 16-20 h at 35° C. in ambient air. The MIC of the compounds was defined as the lowest concentration of said compounds that prevented bacterial growth as read by visual inspection.
# [7] = system: E. coli 190317; assay: as above; format: cell-based; details: strain 190317; MIC of CAZ, compound fixed at 4 μg/mL
# Experimental: as §2
# [8] = system: K. pneumoniae 6299; assay: as above; format: cell-based; details: strain 6299; MIC of CAZ, compound fixed at 4 μg/mL
# Experimental: as §2
# [9] = system: K. pneumoniae BAA-1898; assay: as above; format: cell-based; details: strain BAA-1898; MIC of CAZ, compound fixed at 4 μg/mL
# Experimental: as §2
# [10] = system: P. aeruginosa CIP107051; assay: as above; format: cell-based; details: strain CIP107051; MIC of CAZ, compound fixed at 4 μg/mL
# Experimental: as §2
# [11] = target: AmpC (P99) (Enterobacter cloacae, UniProt P05364); details: read-out: IC50 β-lactamase AmpC (P99); class (C); nitrocefin 200 μM, 30-min pre-incubation, enzyme 0.2 nM
# [12] = target: CMY-37 (Citrobacter freundii, UniProt P05193); details: read-out: IC50 β-lactamase CMY-37; class (C); nitrocefin 200 μM, 30-min pre-incubation, enzyme 0.2 nM
# [13] = target: AmpC (PAE) (Pseudomonas aeruginosa, UniProt P24735); details: read-out: IC50 β-lactamase AmpC (PAE); class (C); nitrocefin 200 μM, 30-min pre-incubation, enzyme 0.4 nM
# [14] = target: OXA-15 (Pseudomonas aeruginosa, UniProt Q51574); details: read-out: IC50 β-lactamase OXA-15; class (D); nitrocefin 200 μM, 30-min pre-incubation, enzyme 0.4 nM
# [15] = target: TEM-1 (Escherichia coli, UniProt P62593); details: read-out: IC50 β-lactamase TEM-1; class (A); nitrocefin 200 μM, 30-min pre-incubation, enzyme 0.1 nM
# [16] = target: SHV-1 (Klebsiella pneumoniae, UniProt P0AD64); details: read-out: IC50 β-lactamase SHV-1; class (A); nitrocefin 200 μM, 30-min pre-incubation, enzyme 0.075 nM
# [17] = target: CTX-M-15 (Escherichia coli, UniProt Q9EXV5); details: read-out: IC50 β-lactamase CTX-M-15; class (A); nitrocefin 200 μM, 30-min pre-incubation, enzyme 0.4 nM
# [18] = target: KPC-2 (Klebsiella pneumoniae, UniProt Q9F663); details: read-out: IC50 β-lactamase KPC-2; class (A); nitrocefin 200 μM, 30-min pre-incubation, enzyme 1 nM
# [19] = target: OXA-1 (Escherichia coli, UniProt P13661); details: read-out: IC50 β-lactamase OXA-1; class (D); nitrocefin 200 μM, 30-min pre-incubation, enzyme 0.2 nM
# [20] = target: OXA-11 (Pseudomonas aeruginosa, UniProt Q06778); details: read-out: IC50 β-lactamase OXA-11; class (D); nitrocefin 200 μM, 30-min pre-incubation, enzyme 1.2 nM
# [21] = target: OXA-48 (Klebsiella pneumoniae, UniProt Q6XEC0); details: read-out: IC50 β-lactamase OXA-48; class (D); nitrocefin 200 μM, 30-min pre-incubation, enzyme 0.3 nM
SMILES,MIC compounds of the invention alone [1] [µg/mL],MIC compounds of the invention alone [2] [µg/mL],MIC compounds of the invention alone [3] [µg/mL],MIC compounds of the invention alone [4] [µg/mL],MIC compounds of the invention alone [5] [µg/mL],MIC combination of CAZ and compounds of the invention at 4 μg/mL [6] [µg/mL],MIC combination of CAZ and compounds of the invention at 4 μg/mL [7] [µg/mL],MIC combination of CAZ and compounds of the invention at 4 μg/mL [8] [µg/mL],MIC combination of CAZ and compounds of the invention at 4 μg/mL [9] [µg/mL],MIC combination of CAZ and compounds of the invention at 4 μg/mL [10] [µg/mL],pIC50 [11],pIC50 [12],pIC50 [13],pIC50 [14],pIC50 [15],pIC50 [16],pIC50 [17],pIC50 [18],pIC50 [19],pIC50 [20],further results
"Cc1cc(C(N)=O)nn1C1=CC2CN(C1)C(=O)N2OS(=O)(=O)[O-].[Na+] (stereo not drawn) [Example 23, sodium (7-oxo-3-(3-carboxamide-5-methyl-pyrazol-1-yl)-1,6-diazabicyclo[3.2.1]oct-3-en-6-yl) sulfate]",>32,>32,>32,>32,>32,8,0.5,4,4,16,7.42,7.27,6.66,6.12,9.72,9.44,9.00,8.24,5.82,5.96,pIC50 [21]: 6.96
"NCCONC(=O)c1cnn(C2=CC3CN(C2)C(=O)N3OS(=O)(=O)[O-])c1.O=C(O)C(F)(F)F.[Na+] (stereo not drawn) [Example 24, sodium and 2,2,2-trifluoroacetate [7-oxo-3-[4-carboxamide,N-(2-ammoniumethoxy)-pyrazol-1-yl]-1,6-diazabicyclo[3.2.1]oct-3-en-6-yl]sulfate]",16,2,>32,>32,>32,0.25,<0.25,0.25,1,4,7.92,7.80,6.80,7.32,9.43,8.62,9.12,8.28,7.12,7.02,pIC50 [21]: 8.34
"NC(=O)c1nn(C2=CC3CN(C2)C(=O)N3OS(=O)(=O)[O-])cc1F.[Na+] (stereo not drawn) [Example 26, sodium (7-oxo-3-(3-carboxamide-4-fluoro-pyrazol-1-yl)-1,6-diazabicyclo[3.2.1]oct-3-en-6-yl) sulfate]",16,4,16,16,>32,1,<0.25,≤0.25,0.5,4,7.85,7.44,6.89,7.89,9.64,8.92,9.14,8.49,7.48,8.01,pIC50 [21]: 8.11
